The supplement of paper PMC10307832

Legend:
Assay in all cases: relative viability (nuclei count vs DMSO), 5 days (fraction); higher = more cells survive
[1] = compound: CNC(=O)c1cc(Oc2ccc(NC(=O)Nc3ccc(Cl)c(C(F)(F)F)c3)cc2)ccn1 [Sorafenib] + Nc1nc2[nH]cc(CCc3ccc(C(=O)N[C@@H](CCC(=O)O)C(=O)O)cc3)c2c(=O)[nH]1 [Pemetrexed] (partner 0.2 µM)
How it was run: (§1)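 The day after seeding in 1536-well plates, lung cancer cell lines were treated by pin tool with a single drug, or with a fixed anchor-drug dose together with five library-drug doses (not always all listed) in √10 steps. After 5 days, a combined fix-and-stain solution (final 0.05% Triton X-100, 1% formaldehyde, 1 ug/ml Hoechst) was added. Nuclei counted on 4× images gave relative viability as treated counts over vehicle counts, reported as the median of duplicate plates.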

[2] = compound: CNC(=O)c1cc(Oc2ccc(NC(=O)Nc3ccc(Cl)c(C(F)(F)F)c3)cc2)ccn1 [Sorafenib] + NC(=O)Nc1cc(-c2cccc(F)c2)sc1C(=O)N[C@H]1CCCNC1 [AZD7762] (partner 0.2 µM)
How it was run: as §1

[3] = compound: CNC(=O)c1cc(Oc2ccc(NC(=O)Nc3ccc(Cl)c(C(F)(F)F)c3)cc2)ccn1 [Sorafenib] + CC(=O)Nc1cccc(-n2c(=O)n(C3CC3)c(=O)c3c(Nc4ccc(I)cc4F)n(C)c(=O)c(C)c32)c1 [Trametinib] (partner 0.02 µM)
How it was run: as §1

[4] = compound: CNC(=O)c1cc(Oc2ccc(NC(=O)Nc3ccc(Cl)c(C(F)(F)F)c3)cc2)ccn1 [Sorafenib] + Nc1ncn([C@H]2C[C@H](O)[C@@H](CO)O2)c(=O)n1 [Decitabine] (partner 2 µM)
How it was run: as §1

[5] = compound: CNC(=O)c1cc(Oc2ccc(NC(=O)Nc3ccc(Cl)c(C(F)(F)F)c3)cc2)ccn1 [Sorafenib] + CS(=O)(=O)N1CCN(Cc2cc3nc(-c4cccc5[nH]ncc45)nc(N4CCOCC4)c3s2)CC1 [Pictilisib] (partner 1 µM)
How it was run: as §1

Cell Line	relative viability ([1]; first compound 0.08 µM)	relative viability ([1]; first compound 0.253 µM)	relative viability ([1]; first compound 2.53 µM)	relative viability ([1]; first compound 8 µM)	relative viability ([2]; first compound 0.08 µM)	relative viability ([2]; first compound 0.253 µM)	relative viability ([2]; first compound 8 µM)	relative viability ([3]; first compound 0.08 µM)	relative viability ([3]; first compound 0.253 µM)	relative viability ([3]; first compound 2.53 µM)	relative viability ([3]; first compound 8 µM)	relative viability ([4]; first compound 0.08 µM)	relative viability ([4]; first compound 0.253 µM)	relative viability ([4]; first compound 2.53 µM)	relative viability ([4]; first compound 8 µM)	relative viability ([5]; first compound 0.253 µM)	relative viability ([5]; first compound 2.53 µM)	relative viability ([5]; first compound 8 µM)	relative viability ([2]; first compound 2.53 µM)	relative viability ([5]; first compound 0.08 µM)
NCI-H460	0.0604	0.0653	0.0731	0.0582	0.586	0.444	0.414	0.225	0.154	0.126	0.0388	0.472	0.447	0.457	0.357	0.442	0.51	0.3		
HCC-15	0.253	0.211	0.22	0.145	1.18	1.17	0.951	0.411	0.354	0.396	0.3	0.679	0.631	0.723	0.321	0.683		0.602	1.05	0.729
LCLC-103H	0.526	0.437	0.422	0.451	0.778	0.652	0.843	0.68	0.731	0.691	0.674	0.701	0.774	0.771	0.698	0.581	0.698	0.758	0.769	0.689
PC-14	0.133	0.137	0.123	0.102	0.365	0.256	0.303	0.883	0.694	0.567	0.158	0.22	0.177	0.225	0.156	0.542	0.625	0.344	0.444	0.748
NCI-H1395	1		0.917		0.424		0.429	1.25		1.04	0.846	0.732		0.772	0.743	0.636	0.642	0.39	0.428	0.603
HCC-366	0.158	0.124	0.127	0.174	0.306	0.283	0.0837	0.403	0.436	0.331	0.226	0.337	0.295	0.34	0.279	0.118	0.138	0.151	0.181	0.208
NCI-H2085	1.02	0.98	1.15	0.762	1.04	0.874	0.604	0.643	0.464	0.43	0.391	0.608	0.566	0.573	0.49	0.444	0.549	0.481	1.03	0.541
ChaGo-K-1	0.247	0.258	0.264	0.248	0.899	0.796	0.809	0.884	0.855	0.886	0.708	0.532	0.537	0.51	0.471	0.592	0.794	0.399	0.845	0.939
PC-3 [JPC-3]	1.11	0.856	1.34	1.2	0.929	0.711	0.948		0.712	0.773	0.718	0.835	0.763	0.837	0.826	0.659	0.752	0.679	1.07	0.813
HCC-78	0.936	0.879	0.847	0.888	0.846	0.496	0.768	0.807	0.646	0.897	0.523	0.752	0.634	0.608	0.596	0.229	0.268	0.217	0.863	0.254
NCI-H2170	0.258	0.278	0.27	0.208		0.816	0.819	0.896	0.805	0.99	0.804	0.493	0.411	0.486	0.437	0.348	0.369	0.255	0.824	0.323
NCI-H2126	0.763	0.672	0.681	0.706	1.01	1.01	0.982	0.581	0.541	0.623	0.589	0.631	0.524	0.562	0.643	0.505	0.618	0.54	1.07	0.498
NCI-H2347	0.442	0.398	0.425	0.413	0.784	0.664	0.47	0.3	0.308	0.266	0.314	0.592	0.628	0.675	0.594	0.479	0.641	0.493	0.636	0.956
RERF-LC-KJ	0.485	0.458	0.524	0.417	1.09	0.781	0.897	0.753		0.86	0.65	0.74	0.673	0.586	0.473	0.578	0.612	0.438	0.941	0.604
201T	0.334	0.302	0.334	0.328	0.575	0.554		0.679	0.726	0.735	0.762	0.854	0.816	0.867	0.879	0.669	0.72	0.65	0.449	0.684
NCI-H1915	0.423	0.45	0.433	0.504	0.722	0.51	0.669	0.322	0.289	0.204	0.125	0.26	0.254	0.268	0.247	0.911	0.958	0.866	0.558	0.875
